Results published in the pKa sets of Baltruschat and Czodrowski (2020).

Row | SMILES | pKa (basic group) | pKa (acidic group)
1 | CCCCCCCCCCNCCC(=O)[O-] | 10.6 | 
2 | O=C1C(=O)C(c2ccccc2)C1=O |  | 0.37
3 | CC(=O)[C@@H]1C[C@H](C(=O)O)C1(C)C |  | 4.63
4 | C[C@H]([NH3+])[C@@H](C)N | 6.84 | 
5 | CCC[Se](=O)O |  | 5.25
6 | O=c1c(O)c1-c1ccc(F)cc1 |  | 2.07
7 | CC(=O)CC(=O)C(C)C |  | 9.46
8 | O=C([O-])c1ccc2nc3ccccc3cc2c1 | 5.22 | 
9 | [NH3+]CCCCc1ccncc1 | 5.81 | 
10 | OC(c1ccncc1)(c1ccncc1)c1ccncc1 |  | 11.8
11 | Cc1ccc(O)c(C(C)C)c1 |  | 10.7
12 | CC(=O)[n+]1ccccc1 |  | 5.32
13 | CC(=O)Nc1cccc(O)c1 |  | 9.38
14 | [NH3+][C@H]1CC[C@@H](C(=O)O)CC1 |  | 4.6
15 | CC(C)(C)c1cc(/C=C/Cl)cc(C(C)(C)C)c1O |  | 11.8
16 | Cc1cccc(-c2nnn[nH]2)c1 |  | 4.15
17 | Cc1cnc2c(ccc3c(C)c(C)cnc32)c1C | 6.31 | 
18 | CCN(C)CCCNC(=O)/C=N/[O-] | 9.97 | 
19 | C=C(C)C(=O)OCCN(CC)CC | 8.66 | 
20 | Cn1cnc2cccc(N)c21 | 5.79 | 
21 | CCCCCCCCCCCCCCC(=O)O |  | 5.01
22 | C[n+]1c([S-])ccnc1[S-] | 6.96 | 

Row | SMILES | pKa (basic group) | pKa (acidic group)
23 | Nc1cccc(N)c1 | 5.04 | 
24 | O=C1CC(S)C(=O)N1 (centres undefined) |  | 6.65
25 | CCCCCCCNc1ccccc1 | 5.09 | 
26 | CCCN1C=CC(=CC=C2C=CC(=O)C=C2)C=C1 | 8.5 | 
27 | C=CCC1(C2=CCCCC2)C(=O)NC(=S)NC1=O |  | 7.09
28 | c1cc(N2CCOCC2)c2c(N3CCOCC3)cccc2c1 | 7.49 | 
29 | C[N+](C)(C)Cc1cccc(O)c1 |  | 8.89
30 | NC(CCc1ccc([N+](=O)[O-])cc1)C(=O)[O-] (centres undefined) | 9.1 | 
31 | Cc1ccccc1NC1CCCCC1 | 5.34 | 
32 | Oc1cccc2c1CCCC2 |  | 10.5
33 | COc1cccc(/C=C/C(=O)O)c1 |  | 4.38
34 | C/C(=N\O)c1ccccc1 |  | 11.3
35 | CC(=O)Nc1ccc2nc3ccccc3cc2c1 | 4.7 | 
36 | CC1(N)C[C@]1(C)N (some centres undefined) | 9.03 | 
37 | Cc1c[nH]c(C)n1 | 8.39 | 
38 | c1ccc(Cc2cc(-c3ccccc3)nnc2NCCN2CCOCC2)cc1 | 6.95 | 
39 | C[n+]1cccc2ccc(O)cc21 |  | 5.56
40 | Cc1cccc(CCCCCCCC(=O)O)[nH+]1 |  | 4.6
41 | OCCCCc1ccncc1 | 6.01 | 
42 | CN[C@H]1C[C@]1(C)NC | 9.05 | 
43 | C[Si](C)(C)c1ccc(C(=O)O)cc1 |  | 4.27
44 | O=C(O)c1cc[n+]([O-])cc1 |  | 2.86

Row | SMILES | pKa (basic group) | pKa (acidic group)
45 | Cn1c(=S)ccc2ccccc21 | -1.6 | 
46 | Cn1c(=S)[nH]c2cncnc21 |  | 7.48
47 | COC(=O)C[C@@H]1[C@@H](C(=O)[O-])NC[C@H]1C(C)O (some centres undefined) | 9.41 | 
48 | CC1=Nc2ccc([N+](=O)[O-])cc2N=C(C)C1 | 4.95 | 
49 | O=C(O)c1cc2ccccc2cc1O |  | 2.71
50 | Nc1ccccc1N | 4.43 | 
51 | CN(C)c1ccc(Cl)cc1 | 4.39 | 
52 | [NH3+]CC(=O)N[C@@H](Cc1c[nH]c[nH+]1)C(=O)O |  | 2.61
53 | O=C(O)CSCCc1ccccc1 |  | 3.8
54 | O=C([O-])[C@@H]1C[C@@H](O)CN1 | 9.64 | 
55 | Nn1nnnc1-c1ccccc1 | -0.62 | 
56 | Oc1ccc2ncsc2c1 |  | 9.21
57 | C#CC(C)Nc1ccccc1 (centres undefined) | 3.25 | 
58 | CCCCCCCCCCCCCNCCCCCCCCCCCCC | 11 | 
59 | C1CCC2NCCCC2C1 (centres undefined) | 10.9 | 
60 | C(CN1CCOCC1)C[NH+]1CCOCC1 | 6.25 | 
61 | CNC(=N)N | 13.4 | 
62 | CCNC(=S)OC(C)C |  | 11.5
63 | C[NH+]1CCCC1c1ccc(Cl)nc1 (centres undefined) | -1.3 | 
64 | CCN(CC)CC(=O)Nc1c(C)cc(C)cc1C | 7.9 | 
65 | Clc1cccc(-c2ccccn2)n1 | 3.7 | 
66 | C/C(=C(\CCO)SSCCC(C)C)N(C=O)Cc1cnc(C)nc1N | 5.58 | 

Row | SMILES | pKa (basic group) | pKa (acidic group)
67 | Oc1cccc2ncccc12 | 5.2 | 8.54
68 | Nc1cc2ccccc2cc1[N+](=O)[O-] | 1.48 | 
69 | C[N+](C)(C)CC(O)CC(=O)O (centres undefined) |  | 3.8
70 | C[S+](C)c1cccc(O)c1 |  | 7.67
71 | O=C(O)c1cncs1 |  | 2.99
72 | CCCNC1c2ccccc2C=Cc2ccccc21 | 8.9 | 
73 | Cc1ccccn1 | 5.98 | 
74 | NCCBr | 8.5 | 
75 | O=C(O)C12CCC(CC1)C2 |  | 4.89
76 | CN(C1=NCCO1)c1ccccc1 | 8.51 | 
77 | COc1ccc2nccc(C(O)C3CCCCN3)c2c1 (centres undefined) | 9.3 | 
78 | CCC[Si](C)(CCC)CC(=O)O |  | 5.65
79 | NC(Cc1cccnc1)C(=O)[O-] (centres undefined) | 9.26 | 
80 | Oc1cc(-c2ccccc2)n(-c2ccccc2)n1 |  | 12.9
81 | CN(C)CCc1ccc(O)cc1 | 9.8 | 
82 | Cc1cccc(C)c1/C(=N/CCCN(C)C)c1ccccc1 | 8.7 | 
83 | Cc1cc(Br)cc(C)c1N(C)C | 4.36 | 
84 | CNc1ccccc1C | 4.59 | 
85 | N#C/C(=N\O)C(N)=O |  | 5.12
86 | CSC(=O)C1c2ccccc2-c2ccccc21 |  | 10.5
87 | C[NH+](C)Cc1c(O)c(O)c(O)c(C[NH+](C)C)c1C(=O)[O-] |  | 6.95
88 | Cc1cc[nH]n1 | 3.66 | 
